Assay results published in patent US20250011326A1, “FUSED HETEROCYCLIC DERIVATIVES AND THEIR USE IN THE TREATMENT OF HBV INFECTION” (Janssen Sciences Ireland Unlimited Company, priority 2021, published 2025).

Tests used:
[1] = Cytotoxicity, cell viability by ATPlite Luminescence Assay; assay type: cell-based, human; details: human, HepG2 or HepG2 117 cells, 3-days incubation (unless marked *), mean value
Experimental: (§1) Cytotoxicity of the compounds was tested using HepG2 or HepG2 117 cells, incubated for 3 or 4 days in the presence of compounds. The viability of the cells was assessed using the PERKIN ELMER ATPlite Luminescence Assay System.”

[2] = system: HBV; assay: Anti-HBV activity: intracellular HBV DNA by real-time PCR in HepG2.117 cell line; assay type: cell-based, Hepatitis B virus; details: HepG2.117 cells, HBV replication induced (absence of doxycycline), 3 days of treatment, mean value
Experimental: The anti HBV activity was measured using the HepG2.117 cell line, a stable, inducibly HBV producing cell line, which replicates HBV in the absence of doxycycline (Tet-off system). The HepG2 cell line is available from ATCCR under number HB-8065 Transfection of the HepG2 cell line can be as described in Sun and Nassal 2006 Journal of Hepatology 45 (2006) 636-645 “Stable HepG2- and Huh7-based human hepatoma cell lines for efficient regulated expression of infectious hepatitis B virus”.
For the antiviral assay, HBV replication was induced, followed by a treatment with serially diluted compound in 96-well plates. After 3 days of treatment, the antiviral activity was determined by quantification of intracellular HBV DINA using real-time PCR and an HBV specific primer set and probe.

[3] = system: HepG2 or HepG2 117 cells; assay: Cytotoxicity, cell viability by ATPlite Luminescence Assay; assay type: cell-based, human; details: 3-days incubation (unless marked *), mean value
Experimental: as §1

[4] = Hepatitis B virus, HepG2.117, 72 h

SMILES	CC50 at 3 days [1]	EC50 [2]	CC50 [3]	EC50 [2, 4]
CC(=O)NC[C@@H]1Cn2nc3c(c2C(=O)N1[C@@H](C)c1ccc(OC(F)F)cc1)CN(C(=O)c1ccc(Cl)c(C#N)c1)[C@H](C)C3 (single isomer, unassigned) [Compound 1B, N-(((3R,8R*)-2-(4-chloro-3-cyanobenzoyl)-9-((S*)-1-(4-(difluoromethoxy)phenyl)ethyl)-3-methyl-10-oxo-1,2,3,4,7,8,9,10-octahydropyrido[4′,3′:3,4]pyrazolo[1,5-a]pyrazin-8-yl)methyl)acetamide]	> 50 µM	1.48 µM		
CC(=O)NC[C@@H]1Cn2nc3c(c2C(=O)N1[C@@H](C)c1ccc(OC(F)F)cc1)CN(C(=O)c1ccc(Cl)c(C#N)c1)[C@H](C)C3 (single isomer, unassigned) [Compound 1D, N-(((3R,8S*)-2-(4-chloro-cyanobenzoyl)-9-((S*)-1-(4-(difluoromethoxy)phenyl)ethyl)-3-methyl-10-oxo-1,2,3,4,7,8,9,10-octahydropyrido[4′,3′:3,4]pyrazolo[1,5-a]pyrazin-8-yl)methyl)acetamide]		0.491 µM	> 50 µM	
CNC(=O)[C@@H]1Cn2nc3c(c2C(=O)N1[C@@H](C)c1ccc(OC(F)F)cc1)CN(C(=O)c1ccc(Cl)c(C#N)c1)[C@H](C)C3 (single isomer, unassigned) [Compound 2B, (3R,8S*)-2-(4-chloro-3-cyanobenzoyl)-9-((S*)-1-(4-(difluoromethoxy)phenyl)ethyl)-N,3-dimethyl-10-oxo-1,2,3,4,7,8,9,10-octahydropyrido[4′,3′:3,1]pyrazolo[1,5-a]pyrazine-8-carboxamide]	> 50 µM			0.183 µM
CC1Cn2nc3c(c2C(=O)N1Cc1ccc(OC(F)F)cc1)CN(C(=O)c1ccc(Cl)c(Cl)c1)[C@H](C)C3 (single isomer, unassigned) [Compound 6A, (3R,8R*)-2-(3,4-dichlorobenzoyl)-9-(4-(difluoromethoxy)benzyl)-3,8-dimethyl-1,2,3,4,8,9-hexahydropyrido[4′,3′:3,4]pyrazolo[1,5-a]pyrazin-10(7H)-one]	4.5 µM			0.032 µM
CC(c1ccc(OC(F)F)cc1)n1ncn2nc3c(c2c1=O)CN(C(=O)c1ccc(Cl)c(C(F)(F)F)c1)[C@H](C)C3 (single isomer, unassigned) [Compound 7A, (R)-9-(4-Chloro-3-(trifluoromethyl)benzoyl)-2-((R*)-1-(4-(difluoromethoxy)phenyl)ethyl)-8-methyl-7,8,9,10-tetrahydropyrido[4′,3′:3,4]pyrazolo[1,5-d][1,2,4]triazin-1(2H)-one]	46.3 µM			0.194 µM
CC(c1ccc(OC(F)F)cc1)n1ncn2nc3c(c2c1=O)CN(C(=O)c1ccc(Cl)c(Cl)c1)[C@H](C)C3 (single isomer, unassigned) [Compound 8A, (R)-9-(3,4-Dichlorobenzoyl)-2-((R*)-1-(4-(difluoromethoxy)phenyl)ethyl)-8-methyl-7,8,9,10-tetrahydropyrido[4′,3′:3,4]pyrazolo[1,5-d][1,2,4]triazin-1(2H)-one]	> 50 µM			0.067 µM
CC(c1ccc(OC(F)F)cc1)n1ncn2nc3c(c2c1=O)CN(C(=O)c1ccc(Cl)c(C#N)c1)[C@H](C)C3 (single isomer, unassigned) [Compound 9B, 2-chloro-5-((R)-2-((S*)-1-(4-(difluoromethoxy)phenyl)ethyl)-8-methyl-1-oxo-1,2,7,8,9,10-hexahydropyrido[4′,3′:3,4]pyrazolo[1,5-d][1,2,4]triazine-9-carbonyl)benzonitrile]	> 50 µM			0.13 µM
CC(c1ccc(OC(F)F)cc1)n1ccn2nc3c(c2c1=O)CN(C(=O)c1ccc(Cl)c(Cl)c1)[C@H](C)C3 (single isomer, unassigned) [Compound 10A, (R)-2-(3,4-dichlorobenzoyl)-9-((R*)-1-(4-(difluoromethoxy)phenyl)ethyl)-3-methyl-1,2,3,4-tetrahydropyrido[4′,3′:3,4]pyrazolo[1,5-a]pyrazin-10(9H)-one]	32.8 µM	0.072 µM		
CC(c1ccc(OC(F)F)cc1)n1ccn2nc3c(c2c1=O)CN(C(=O)c1ccc(Cl)c(Cl)c1)[C@H](C)C3 (single isomer, unassigned) [Compound 10B, (R)-2-(3,4-dichlorobenzoyl)-9-((S*)-1-(4-(difluoromethoxy)phenyl)ethyl)-3-methyl-1,2,3,4-tetrahydropyrido[4′,3′:3,4]pyrazolo[1,5-a]pyrazin-10(9H)-one]		0.294 µM	> 50 µM	
CNC(=O)[C@H]1CN([C@@H](C)c2ccc(OC(F)F)cc2)C(=O)c2c3c(nn21)C[C@@H](C)N(C(=O)c1ccc(Cl)c(C#N)c1)C3 (single isomer, unassigned) [Compound 11B, (3R,7R*)-2-(4-chloro-3-cyanobenzoyl-9-((S*)-1-(4-(difluoromethoxy)phenyl)ethyl)-N,3-dimethyl-10-oxo-1,2,3,4,7,8,9,10-octahydropyrido[4′,3′:3,4]pyrazolo[1,5-a]pyrazine-7-carboxamide]	> 50 µM			0.058 µM
CC(=O)NC[C@@H]1CN([C@@H](C)c2ccc(OC(F)F)cc2)C(=O)c2c3c(nn21)C[C@@H](C)N(C(=O)c1ccc(Cl)c(C#N)c1)C3 (single isomer, unassigned) [Compound 13B, N-(((3R,7R*)-2-(4-chloro-3-cyanobenzoyl)-9(S*)-1-(4-(difluoromethoxy)phenyl)ethyl)-3-methyl-10-oxo-1,2,3,4,7,8,9,10-octahydropyrido[4′,3′:3,4]pyrazolo[1,5-a]pyrazin-7-yl)methyl)acetamide]	> 50 µM			0.167 µM
CC(=O)NC[C@H]1CN([C@@H](C)c2ccc(OC(F)F)cc2)C(=O)c2c3c(nn21)C[C@@H](C)N(C(=O)c1ccc(Cl)c(C#N)c1)C3 (single isomer, unassigned) [Compound 13D, N-(((3R,7S*)-2-(4-chloro-3-cyanobenzoyl)-9-((S*)-1-(4-(difluoromethoxy)phenyl)ethyl)-3-methyl-10-oxo-1,2,3,4,7,8,9,10-octahydropyrido[4′,3′:3,4]pyrazolo[1,5-a]pyrazin-7-yl)methyl)acetamide]	> 50 µM			0.344 µM
CC(c1ccc(OC(F)F)cc1)n1ncn2nc3c(c2c1=O)CN(C(=O)c1ccc(Cl)c(C(F)(F)F)c1)[C@H](C)C3 (stereo in doubt) [Compound 7B, (R)-9-(4-chloro-3-(trifluoromethyl)benzoyl)-2-((S*)-1-(4-(difluoromethoxy)phenyl)ethyl)methyl-7,8,9,10-tetrahydropyrido[4′,3′:3,4]pyrazolo[1,5-d][1,2,4]triazin-1(2H)-one]		0.262 µM	> 50 µM	
CC(c1ccc(OC(F)F)cc1)n1ncn2nc3c(c2c1=O)CN(C(=O)c1ccc(Cl)c(C#N)c1)[C@H](C)C3 (stereo in doubt) [Compound 9A, 2-Chloro-S—((R)-2-((R*)-1-(4-(difluoromethoxy)phenyl)ethyl)-8-methyl-1-oxo-1,2,7,8,9,10-hexahydropyrido[4′,3′:3,4]pyrazolo[1,5-d][1,2,4]triazine-9-carbonyl)benzonitrile]		0.553 µM	> 50 µM	
CNC(=O)[C@H]1Cn2nc3c(c2C(=O)N1Cc1ccc(OC(F)F)cc1)CN(C(=O)c1ccc(Cl)c(C#N)c1)[C@H](C)C3 [Compound 3A]	> 50 µM			0.427 µM
CC(c1ccc(OC(F)F)cc1)N1C(=O)c2c3c(nn2CC1CO)C[C@@H](C)N(C(=O)c1ccc(Cl)c(C#N)c1)C3 (stereo partly drawn) [Compound 4, 2-Chloro-5-((3R)-9-(1-(4-(difluoromethoxy)phenyl)ethyl)-8-(hydroxymethyl)-3-methyl-10-oxo-1,2,3,4,7,8,9,10-octahydropyrido[4′,3′:3,4]pyrazolo[1,5-a]pyrazine-2-carboaryl)benzonitrile]	25 µM			0.227 µM
CNC(=O)CC[C@H]1Cn2nc3c(c2C(=O)N1Cc1ccc(OC(F)F)cc1)CN(C(=O)c1ccc(Cl)c(C#N)c1)[C@H](C)C3 [Compound 5, 3-((3R,8S)-2-(4-chloro-3-cyanobenzoyl)-9-(4-(difluoromethoxy)benzyl)-3-methyl-10-oxo-1,2,3,4,7,8,9,10-octahydropyrido[4′3′:3,4]pyrazolo[1,5-a]pyrazin-8-yl)-N-methylpropanamide]	> 50 µM			0.414 µM
CC(c1ccc(OC(F)F)cc1)N1CC(CO)n2nc3c(c2C1=O)CN(C(=O)c1ccc(Cl)c(C#N)c1)[C@H](C)C3 (stereo partly drawn) [Compound 12, 2-Chloro-5-((3R)-9-(1-(4-(difluoromethoxy)phenyl)ethyl)-7-(hydroxymethyl)-3-methyl-10-oxo-1,2,3,4,7,8,9,10-octahydropyrido[4′,3′:3,4]pyrazolo[1,5-a]pyrazine-2-carbonyl)benzonitrile]	24.9 µM			0.068 µM
